Results: paper PMC4559079 (Journal of Hematology & Oncology, 2015)
Where “and” joins values, the source holds several entries; their conditions need not be identical. Identical values can stand only once. Entries after “also recorded” stand apart in the source; their conditions may differ. Like-named read-outs stand apart in the source and are kept apart here.

How the values were obtained:
[1] = ixazomib with lenalidomide and dexamethasone; Western patients with NDMM; cited from earlier work
[2] = design: method as in PMID 24904120, PMID 25456369; settings: Western patients, pooled from three studies, single agent or with lenalidomide–dexamethasone, cited from earlier work
[3] = Plasma PK of ixazomib given with lenalidomide–dexamethasone, phase 1 study in East Asian patients with RRMM (LC/MS/MS, non-compartmental analysis); format: in vivo, human; settings: for Accumulation ratio: day 15 AUC0–168/day 1 AUC0–168; for DN AUC0–168 / DN C max: dose-normalized; for Tmax / half-life / Cmax / AUC(0-t): human, plasma; for AUC(0-t): read-out: AUC0–168
Experimental: Plasma PK parameters were calculated for patients in the safety population following administration of ixazomib on cycle 1 day 1 and/or cycle 1 day 15 provided sufficient concentration–time data were available, the patient had received the protocol-specified ixazomib dosing regimen during cycle 1, and no excluded concomitant medications were received during the PK sampling period. PK parameters were estimated using non-compartmental analysis methods from the ixazomib concentration versus time data. The analyses were performed using Phoenix WinNonlin version 6.2 (Pharsight, Princeton, NJ). PK parameters were summarized, as appropriate, using descriptive statistics. DN AUC data in East Asian patients were compared with data for Western patients, pooled from three phase 1/2 trials of patients with RRMM (NCT00963820), NDMM (NCT01217957), and relapsed/refractory AL amyloidosis (NCT01318902).

[4] = design: method as in PMID 25377318; settings: Western patients, cited from earlier work
[5] = cycle 1 day 1, Chinese, geometric mean (% CV)
[6] = cycle 1 day 1, Korean, geometric mean (% CV)
[7] = cycle 1 day 1, Other, geometric mean (% CV)
[8] = cycle 1 day 15, Chinese, geometric mean (% CV)
[9] = cycle 1 day 15, Korean, geometric mean (% CV)
[10] = cycle 1 day 15, Other, geometric mean (% CV)
[11] = po, cycle 1 day 1, Chinese, geometric mean (% CV), 4.0 mg oral + lenalidomide–dexamethasone
[12] = po, cycle 1 day 1, Korean, geometric mean (% CV), 4.0 mg oral + lenalidomide–dexamethasone
[13] = po, cycle 1 day 1, Other, geometric mean (% CV), 4.0 mg oral + lenalidomide–dexamethasone
[14] = po, cycle 1 day 1, Overall, geometric mean (% CV), 4.0 mg oral + lenalidomide–dexamethasone
[15] = po, cycle 1 day 15, Chinese, geometric mean (% CV), 4.0 mg oral + lenalidomide–dexamethasone
[16] = po, cycle 1 day 15, Korean, geometric mean (% CV), 4.0 mg oral + lenalidomide–dexamethasone
[17] = po, cycle 1 day 15, Other, geometric mean (% CV), 4.0 mg oral + lenalidomide–dexamethasone
[18] = po, cycle 1 day 15, Overall, geometric mean (% CV), 4.0 mg oral + lenalidomide–dexamethasone

Q: With `CC(C)C[C@H](NC(=O)CNC(=O)c1cc(Cl)ccc1Cl)B(O)O` [ixazomib] as the compound, how does the “DLT-evaluable patients experiencing DLTs” value (cycle 1, 4.0 mg ixazomib with lenalidomide–dexamethasone) read?
A: The value was 2 of 24.

Q: And the “dose-limiting toxicities in the first six patients” value (starting dose 4.0 mg ixazomib, cycle 1, with lenalidomide–dexamethasone)?
A: Its value is “No dose-limiting toxicities; also recorded: no DLTs”.

Q: What about the “recommended phase 2/3 dose (RP2/3D)” value (weekly oral ixazomib with lenalidomide–dexamethasone, East Asian patients with RRMM) of the same compound?
A: The value was 4.0 mg.

Q: What about the “recommended phase 2/3 dose (RP2/3D)” value [1] of the same compound?
A: Its value is 4.0 mg.

Q: What about the “geometric mean DN AUC0–168” value ([2]; day 1 of dosing) of the same compound?
A: Its value is 152 [95 % CV] ng*h/mL/mg.

Q: What about the “geometric mean DN AUC0–168” value ([2]; day 15) of the same compound?
A: The value was 269 [44 % CV] ng*h/mL/mg.

Q: What about the “difference in geometric mean DN AUC0–168, East Asian vs Western patients (higher)” value ([3]; day 1 of dosing, 194 vs 152 ng*h/mL/mg) of the same compound?
A: The value was 28%.

Q: What about the “difference in geometric mean DN AUC0–168, East Asian vs Western patients (higher)” value ([3]; day 15, 401 vs 269 ng*h/mL/mg) of the same compound?
A: Its value is 49%.

Q: And the Accumulation ratio ([3]; Chinese, geometric mean (% CV))?
A: Its Accumulation ratio is 2.38 (30).

Q: What about the Accumulation ratio ([3]; Korean, geometric mean (% CV)) of the same compound?
A: The Accumulation ratio was 2.34 (40).

Q: And the Accumulation ratio ([3]; Other, geometric mean (% CV))?
A: Its Accumulation ratio is 2.56 (33).

Q: And the “DN AUC0–168” value [3, 5]?
A: The value was 233 (83) h*ng/mL/mg.

Q: What about the “DN C max” value [3, 5] of the same compound?
A: The value was 12.6 (102) ng/mL/mg.

Q: What about the “DN AUC0–168” value [3, 6] of the same compound?
A: Its value is 157 (47) h*ng/mL/mg.

Q: And the “DN C max” value [3, 6]?
A: The value was 5.53 (99) ng/mL/mg.

Q: What about the “DN AUC0–168” value [3, 7] of the same compound?
A: Its value is 180 (63) h*ng/mL/mg.

Q: And the “DN C max” value [3, 7]?
A: The value was 8.93 (118) ng/mL/mg.

Q: What about the “DN AUC0–168” value ([3]; cycle 1 day 1, Overall East Asian, geometric mean (% CV)) of the same compound?
A: Its value is 194 [78 % CV] h*ng/mL/mg and 194 (78) h*ng/mL/mg.

Q: And the “DN C max” value ([3]; cycle 1 day 1, Overall, geometric mean (% CV))?
A: Its value is 8.45 (115) ng/mL/mg.

Q: And the “DN AUC0–168” value [3, 8]?
A: The value was 438 (39) h*ng/mL/mg.

Q: What about the “DN C max” value [3, 8] of the same compound?
A: Its value is 12.6 (71) ng/mL/mg.

Q: What about the “DN AUC0–168” value [3, 9] of the same compound?
A: The value was 362 (49) h*ng/mL/mg.

Q: And the “DN C max” value [3, 9]?
A: The value was 9.51 (67) ng/mL/mg.

Q: And the “DN AUC0–168” value [3, 10]?
A: The value was 383 (81) h*ng/mL/mg.

Q: What about the “DN C max” value [3, 10] of the same compound?
A: The value was 10.6 (97) ng/mL/mg.

Q: What about the “DN AUC0–168” value ([3]; cycle 1 day 15, Overall East Asian, geometric mean (% CV)) of the same compound?
A: The value was 401 [48 % CV] h*ng/mL/mg and 401 (48) h*ng/mL/mg.

Q: And the “DN C max” value ([3]; cycle 1 day 15, Overall, geometric mean (% CV))?
A: Its value is 11.0 (72) ng/mL/mg.

Q: And the Tmax ([3]; oral, days 1 and 15 of cycle 1, East Asian patients, with lenalidomide–dexamethasone, read-out: median time to maximum plasma concentration)?
A: The Tmax was 1.5 to 2 h.

Q: What about the half-life ([3]; oral, geometric mean, after multiple dosing, overall East Asian patients, read-out: terminal half-life (converted)) of the same compound?
A: Its half-life is 146 h.

Q: What about the half-life ([3]; oral, terminal disposition phase, cycle 1 day 15, Chinese, geometric mean (% CV), read-out: t1/2 (converted)) of the same compound?
A: The half-life was 148 h.

Q: And the half-life ([3]; oral, terminal disposition phase, cycle 1 day 15, Korean, geometric mean (% CV), read-out: t1/2 (converted))?
A: The half-life was 145 h.

Q: And the half-life ([3]; oral, terminal disposition phase, cycle 1 day 15, Other, geometric mean (% CV), read-out: t1/2 (converted))?
A: The half-life was 148 h.

Q: What about the half-life ([3]; oral, terminal disposition phase, cycle 1 day 15, Overall, geometric mean (% CV), read-out: t1/2 (converted)) of the same compound?
A: Its half-life is 147 h.

Q: And the Cmax [3, 11]?
A: The Cmax was 50.6 ng/mL.

Q: And the AUC(0-t) [3, 11]?
A: Its AUC(0-t) is 933 ng·h/mL.

Q: What about the Tmax ([3]; po, cycle 1 day 1, Chinese, median (range), 4.0 mg oral + lenalidomide–dexamethasone, read-out: T max) of the same compound?
A: Its Tmax is 1.04 h.

Q: And the Cmax [3, 12]?
A: Its Cmax is 22.1 ng/mL.

Q: And the AUC(0-t) [3, 12]?
A: The AUC(0-t) was 630 ng·h/mL.

Q: And the Tmax ([3]; po, cycle 1 day 1, Korean, median (range), 4.0 mg oral + lenalidomide–dexamethasone, read-out: T max)?
A: The Tmax was 1.95 h.

Q: What about the Cmax [3, 13] of the same compound?
A: Its Cmax is 35.7 ng/mL.

Q: What about the AUC(0-t) [3, 13] of the same compound?
A: Its AUC(0-t) is 720 ng·h/mL.

Q: What about the Tmax ([3]; po, cycle 1 day 1, Other, median (range), 4.0 mg oral + lenalidomide–dexamethasone, read-out: T max) of the same compound?
A: The Tmax was 1.75 h.

Q: And the Cmax [3, 14]?
A: Its Cmax is 33.8 ng/mL.

Q: What about the AUC(0-t) [3, 14] of the same compound?
A: The AUC(0-t) was 776 ng·h/mL.

Q: What about the Tmax ([3]; po, cycle 1 day 1, Overall, median (range), 4.0 mg oral + lenalidomide–dexamethasone, read-out: T max) of the same compound?
A: Its Tmax is 1.5 h.

Q: And the Cmax [3, 15]?
A: Its Cmax is 50.3 ng/mL.

Q: What about the AUC(0-t) [3, 15] of the same compound?
A: Its AUC(0-t) is 1750 ng·h/mL.

Q: And the Tmax ([3]; po, cycle 1 day 15, Chinese, median (range), 4.0 mg oral + lenalidomide–dexamethasone, read-out: T max)?
A: Its Tmax is 2 h.

Q: And the Cmax [3, 16]?
A: The Cmax was 38 ng/mL.

Q: What about the AUC(0-t) [3, 16] of the same compound?
A: Its AUC(0-t) is 1450 ng·h/mL.

Q: What about the Tmax ([3]; po, cycle 1 day 15, Korean, median (range), 4.0 mg oral + lenalidomide–dexamethasone, read-out: T max) of the same compound?
A: Its Tmax is 2 h.

Q: And the Cmax [3, 17]?
A: Its Cmax is 42.4 ng/mL.

Q: What about the AUC(0-t) [3, 17] of the same compound?
A: Its AUC(0-t) is 1530 ng·h/mL.

Q: What about the Tmax ([3]; po, cycle 1 day 15, Other, median (range), 4.0 mg oral + lenalidomide–dexamethasone, read-out: T max) of the same compound?
A: Its Tmax is 1.25 h.

Q: And the Cmax [3, 18]?
A: Its Cmax is 43.9 ng/mL.

Q: What about the AUC(0-t) [3, 18] of the same compound?
A: The AUC(0-t) was 1610 ng·h/mL.

Q: What about the Tmax ([3]; po, cycle 1 day 15, Overall, median (range), 4.0 mg oral + lenalidomide–dexamethasone, read-out: T max) of the same compound?
A: The Tmax was 2 h.

Q: What about the MTD [4] of the same compound?
A: The MTD was 2.97 mg/m^2.

Q: And the “MTD, equated to fixed dose” value ([4]; equates to 2.97 mg/m^2)?
A: Its value is 5.5 mg.
